Measured values: US20050250752A1, “Cembranoids with chemopreventive activity” (priority 2002, published 2005)

Tests used:
[1] = test system: Epstein-Barr virus early antigen (EBV-EA) of Raji cells induced by tumor promoter (TPA); assay: Inhibition of EBV-EA activation induced by TPA in Raji cells; assay type: cell-based; details: TPA 32 pmol, Raji cells, 48 h
Method: (§1) The inhibition of EBV-EA activation was assayed using Raji cells (virus non-producer type). The indicator cells (Raji, 1×10^6/ml) were incubated at 37° C. for 48 h in 1 ml of medium containing n-butyric acid (4 mmol), TPA(12-O-tetradecanoylphorbol 13-acetate)(32 pmol=20 ng in 2 μl DMSO) as inducer and various amounts of test compounds in 5 μl DMSO. Smears were made from the cell suspension, and the activated cells, which were stained by EBV-EA positive serum from nasopharygeal carcinoma patients were detected by an indirect immunofluorescence technique. For each compound, assays were performed in triplicate. The average EBV-EA induction of the test compounds was expressed as a relative ratio to the control experiment (100%), which was carried out only with n-butyric acid plus TPA. The viability of treated Raji cells was assayed by the Trypan Blue staining method.

Raji cells = assay: Viability of treated Raji cells (Trypan Blue staining); assay type: cell-based
Method: as §1

[2] = test system: papillomas (mouse skin carcinogenesis induced by DMBA/TPA); assay: Two-stage mouse skin carcinogenesis model induced by DMBA/TPA; assay type: in vivo, mouse (female ICR); details: topical 85 nm 1 hour before TPA, ICR mice
Method: In the two-stage mouse skin carcinogenesis model induced by DMBA/TPA, the animals (specific pathogen-free female ICR, 6 weeks old) were divided into 5 groups, 15 mice each. The back of each mouse was shaved with surgical clippers, and the mice were topically treated with DMBA (100 μg, 390 nmol) in acetone (0.1 ml) as an initiation treatment. For the positive control group, 1 week after initiation with DMBA, mice were promoted by the application with TPA (1 μg, 1.7 nmol) in acetone (0.1 ml) twice a week. The other four groups received a topical application of each of the sarcophine semi-synthetic derivatives (85 nm) 1 hour before application of the tumor promoter. The incidence of papillomas was observed weekly for 20 weeks. The percentage of mice bearing papillomas and the average number of papillomas per mouse were recorded.

[3] = x 1000 mol ratio/TPA (32 nmol/mL)

C/C(CO)=C1\CC/C(C)=C/CCC2(C)OC2CC/C(C)=C/C1O (stereo not drawn) [Compound 10]
EBV-EA induction, percentage relative to the positive control value (100%) ([1]; x 10 mol ratio/TPA): 94.1% | EBV-EA induction, percentage relative to the positive control value (100%) ([1]; x 100 mol ratio/TPA): 75.5% | EBV-EA induction, percentage relative to the positive control value (100%) ([1]; x 500 mol ratio/TPA): 57.3% | EBV-EA induction, percentage relative to the positive control value (100%) [1, 3]: 9.6% | viability percentage of Raji cells (indicator cells) (Raji cells; x 10 mol ratio/TPA): > 80% | viability percentage of Raji cells (indicator cells) (Raji cells; x 100 mol ratio/TPA): > 80% | viability percentage of Raji cells (indicator cells) (Raji cells; x 500 mol ratio/TPA): > 80% | viability percentage of Raji cells (indicator cells) (Raji cells; [3]): 60% | Papilloma Bearer (%) ([2]; week 1 of promotion): 0.0% | Papillomas/mouse ([2]; week 1 of promotion): 0.0 | Papilloma Bearer (%) ([2]; week 2 of promotion): 0.0% | Papillomas/mouse ([2]; week 2 of promotion): 0.0 | Papilloma Bearer (%) ([2]; week 3 of promotion): 0.0% | Papillomas/mouse ([2]; week 3 of promotion): 0.0 | Papilloma Bearer (%) ([2]; week 4 of promotion): 0.0% | Papillomas/mouse ([2]; week 4 of promotion): 0.0 | Papilloma Bearer (%) ([2]; week 5 of promotion): 0.0% | Papillomas/mouse ([2]; week 5 of promotion): 0.0 | Papilloma Bearer (%) ([2]; week 6 of promotion): 0.0% | Papillomas/mouse ([2]; week 6 of promotion): 0.0 | Papilloma Bearer (%) ([2]; week 7 of promotion): 0.0% | Papillomas/mouse ([2]; week 7 of promotion): 0.0 | Papilloma Bearer (%) ([2]; week 8 of promotion): 13.3% | Papillomas/mouse ([2]; week 8 of promotion): 0.5 | Papilloma Bearer (%) ([2]; week 9 of promotion): 13.3% | Papillomas/mouse ([2]; week 9 of promotion): 0.9 | Papilloma Bearer (%) ([2]; week 10 of promotion): 26.6% | Papillomas/mouse ([2]; week 10 of promotion): 1.3 | Papilloma Bearer (%) ([2]; week 11 of promotion): 33.3% | Papillomas/mouse ([2]; week 11 of promotion): 1.8 | Papilloma Bearer (%) ([2]; week 12 of promotion): 40.0% | Papillomas/mouse ([2]; week 12 of promotion): 2.1 | Papilloma Bearer (%) ([2]; week 13 of promotion): 46.6% | Papillomas/mouse ([2]; week 13 of promotion): 2.3 | Papilloma Bearer (%) ([2]; week 14 of promotion): 53.3% | Papillomas/mouse ([2]; week 14 of promotion): 2.5 | Papilloma Bearer (%) ([2]; week 15 of promotion): 60.0% | Papillomas/mouse ([2]; week 15 of promotion): 2.7 | Papilloma Bearer (%) ([2]; week 16 of promotion): 73.3% | Papillomas/mouse ([2]; week 16 of promotion): 3.1 | Papilloma Bearer (%) ([2]; week 17 of promotion): 73.3% | Papillomas/mouse ([2]; week 17 of promotion): 3.6 | Papilloma Bearer (%) ([2]; week 18 of promotion): 80.0% | Papillomas/mouse ([2]; week 18 of promotion): 4.0 | Papilloma Bearer (%) ([2]; week 19 of promotion): 80.0% | Papillomas/mouse ([2]; week 19 of promotion): 4.6 | Papilloma Bearer (%) ([2]; week 20 of promotion): 80.0% | Papillomas/mouse ([2]; week 20 of promotion): 4.8

CC1=CC=C([C@@](C)(O)CO)C[C@H](O)C(C)=CCCC2(C)OC2CC1 (stereo partly drawn) [Compound 12, 7,8-Epoxy-1,3,11-cembratriene-13S(β),15R(α),16-triol]
EBV-EA induction, percentage relative to the positive control value (100%) ([1]; x 10 mol ratio/TPA): 93.8% | EBV-EA induction, percentage relative to the positive control value (100%) ([1]; x 100 mol ratio/TPA): 74.6% | EBV-EA induction, percentage relative to the positive control value (100%) ([1]; x 500 mol ratio/TPA): 55.8% | EBV-EA induction, percentage relative to the positive control value (100%) [1, 3]: 5.9% | viability percentage of Raji cells (indicator cells) (Raji cells; x 10 mol ratio/TPA): > 80% | viability percentage of Raji cells (indicator cells) (Raji cells; x 100 mol ratio/TPA): > 80% | viability percentage of Raji cells (indicator cells) (Raji cells; x 500 mol ratio/TPA): > 80% | viability percentage of Raji cells (indicator cells) (Raji cells; [3]): 60% | Papilloma Bearer (%) ([2]; week 1 of promotion): 0.0% | Papillomas/mouse ([2]; week 1 of promotion): 0.0 | Papilloma Bearer (%) ([2]; week 2 of promotion): 0.0% | Papillomas/mouse ([2]; week 2 of promotion): 0.0 | Papilloma Bearer (%) ([2]; week 3 of promotion): 0.0% | Papillomas/mouse ([2]; week 3 of promotion): 0.0 | Papilloma Bearer (%) ([2]; week 4 of promotion): 0.0% | Papillomas/mouse ([2]; week 4 of promotion): 0.0 | Papilloma Bearer (%) ([2]; week 5 of promotion): 0.0% | Papillomas/mouse ([2]; week 5 of promotion): 0.0 | Papilloma Bearer (%) ([2]; week 6 of promotion): 0.0% | Papillomas/mouse ([2]; week 6 of promotion): 0.0 | Papilloma Bearer (%) ([2]; week 7 of promotion): 0.0% | Papillomas/mouse ([2]; week 7 of promotion): 0.0 | Papilloma Bearer (%) ([2]; week 8 of promotion): 13.3% | Papillomas/mouse ([2]; week 8 of promotion): 0.2 | Papilloma Bearer (%) ([2]; week 9 of promotion): 20.0% | Papillomas/mouse ([2]; week 9 of promotion): 0.5 | Papilloma Bearer (%) ([2]; week 10 of promotion): 26.6% | Papillomas/mouse ([2]; week 10 of promotion): 1.1 | Papilloma Bearer (%) ([2]; week 11 of promotion): 33.3% | Papillomas/mouse ([2]; week 11 of promotion): 1.5 | Papilloma Bearer (%) ([2]; week 12 of promotion): 33.3% | Papillomas/mouse ([2]; week 12 of promotion): 2.0 | Papilloma Bearer (%) ([2]; week 13 of promotion): 40.0% | Papillomas/mouse ([2]; week 13 of promotion): 2.2 | Papilloma Bearer (%) ([2]; week 14 of promotion): 46.6% | Papillomas/mouse ([2]; week 14 of promotion): 2.7 | Papilloma Bearer (%) ([2]; week 15 of promotion): 53.3% | Papillomas/mouse ([2]; week 15 of promotion): 3.1 | Papilloma Bearer (%) ([2]; week 16 of promotion): 60.0% | Papillomas/mouse ([2]; week 16 of promotion): 3.7 | Papilloma Bearer (%) ([2]; week 17 of promotion): 66.6% | Papillomas/mouse ([2]; week 17 of promotion): 4.0 | Papilloma Bearer (%) ([2]; week 18 of promotion): 73.3% | Papillomas/mouse ([2]; week 18 of promotion): 4.1 | Papilloma Bearer (%) ([2]; week 19 of promotion): 73.3% | Papillomas/mouse ([2]; week 19 of promotion): 4.4 | Papilloma Bearer (%) ([2]; week 20 of promotion): 80.0% | Papillomas/mouse ([2]; week 20 of promotion): 4.6
